Assay results taken from patent US20240050428A1 (Cullgen (Shanghai), Inc., priority 2020, published 2024).
Like-named read-outs stand apart in the source and are kept apart here.

Assays:
MV4;11 cells = assay: Cell viability assay (CellTiter-Glo) in MV4;11 cells, alone or with gilteritinib; assay type: cell-based; details: Homo sapiens, MV4;11 cells, three days, CellTiter-Glo, read-out: MV4
MOLM-13 cells = assay: Cell viability assay (CellTiter-Glo) in MOLM-13 cells, alone or with gilteritinib; assay type: cell-based; details: Homo sapiens, MOLM-13 cells, three days, CellTiter-Glo
[1] = MV4-11, 72 h, compound alone (without gilteritinib), 11 IC50
[2] = MV4-11, 72 h, compound with gilteritinib 10 nM, 11 IC50 gilteritinib
[3] = MOLM-13, 72 h, compound alone (without gilteritinib), read-out: MOLM-13 IC50
[4] = MOLM-13, 72 h, compound with gilteritinib 20 nM, read-out: MOLM-13 IC50 gilteritinib
[5] = MV4-11, 72 h, with gilteritinib 10 nM, 11 IC50 gilteritinib
[6] = MOLM-13, 72 h, with gilteritinib 20 nM, read-out: MOLM-13 IC50 gilteritinib
[7] = 72 h, compound alone (without gilteritinib), 11 IC50
[8] = 72 h, with gilteritinib 10 nM, 11 IC50 gilteritinib
[9] = 72 h, compound alone (without gilteritinib), read-out: MOLM-13 IC50
[10] = 72 h, with gilteritinib 20 nM, read-out: MOLM-13 IC50 gilteritinib

Structure (SMILES)	IC50 (MV4;11 cells; [1]) [nM]	IC50 (MOLM-13 cells; [3]) [nM]	IC50 (MV4;11 cells; [5]) [nM]	IC50 (MOLM-13 cells; [6]) [nM]	also measured
CN1CCC(Nc2cccnc2-c2cn([C@H]3C[C@H](CNc4ccc5c(c4)C(=O)N(C4CCC(=O)NC4=O)C5=O)C3)nc2C2CC2)CC1 (stereo partly drawn) [GS-617, 5-(((trans-3-(3-Cyclopropyl-4-(3-((1-methylpiperidin-4-yl)amino)pyridin-2-yl)-1H-pyrazol-1-yl)cyclobutyl)methyl)amino)-2-(2,6-dioxopiperidin-3-yl)isoindoline-1,3-dione]	> 1000	> 1000	–	–	IC50 (MV4;11 cells; [2]): > 1000 nM; IC50 (MOLM-13 cells; [4]): > 1000 nM
O=C1CCC(N2C(=O)c3ccc(NCCCCCCn4cc(-c5cnc6ccccc6n5)c(C(F)(F)F)n4)cc3C2=O)C(=O)N1 (stereo not drawn) [GS-550, 2-(2,6-Dioxopiperidin-3-yl)-5-((6-(4-(quinoxalin-2-yl)-3-(trifluoromethyl)-1H-pyrazol-1-yl)hexyl)amino)isoindoline-1,3-dione]	100 to 1000	100 to 1000	–	–	IC50 (MV4;11 cells; [2]): 10 to 100 nM; IC50 (MOLM-13 cells; [4]): 10 to 100 nM
CN1CCN(c2cnn(C3CCN(C(=O)CCCCCNc4ccc5c(c4)C(=O)N(C4CCC(=O)NC4=O)C5=O)CC3)c2)CC1 (stereo not drawn) [GS-046, 2-(2,6-Dioxopiperidin-3-yl)-5-((6-(4-(4-(4-methylpiperazin-1-yl)-1H-pyrazol-1-yl)piperidin-1-yl)-6-oxohexyl)amino)isoindoline-1,3-dione]	> 1000	100 to 1000	10 to 100	10 to 100	–
O=C1CCC(N2C(=O)c3ccc(NCCNc4cccc(N5CCC(n6cc(-c7cnc8ccccc8n7)cn6)CC5)c4)cc3C2=O)C(=O)N1 (stereo not drawn) [GS-351, 2-(2,6-Dioxopiperidin-3-yl)-5-((2-((3-(4-(4-(quinoxalin-2-yl)-1H-pyrazol-1-yl)piperidin-1-yl)phenyl)amino)ethyl)amino)isoindoline-1,3-dione]	–	–	–	–	IC50 (MV4;11 cells; [7]): 10 to 100 nM; IC50 (MV4;11 cells; [8]): 10 to 100 nM; IC50 (MOLM-13 cells; [9]): 10 to 100 nM; IC50 (MOLM-13 cells; [10]): < 10 nM
O=C1CCC(N2C(=O)c3ccc(NC[C@H]4C[C@H](n5cc(-c6ncccc6Cl)c(C6CC6)n5)C4)cc3C2=O)C(=O)N1 (stereo partly drawn) [GS-272, 5-(((trans-3-(4-(3-Chloropyridin-2-yl)-3-cyclopropyl-1H-pyrazol-1-yl)cyclobutyl)methyl)amino)-2-(2,6-dioxopiperidin-3-yl)isoindoline-1,3-dione]	< 10	10 to 100	< 10	< 10	–
O=C1CCC(N2Cc3ccc(CCCCCCC(=O)N4CCC(c5cccc(Cl)c5)CC4)cc3C2=O)C(=O)N1 (stereo not drawn) [GS-115, 3-(6-(7-(4-(3-Chlorophenyl)piperidin-1-yl)-7-oxoheptyl)-1-oxoisoindolin-2-yl)piperidine-2,6-dione]	100 to 1000	10 to 100	10 to 100	< 10	–
O=C1CCC(N2Cc3c(NC4CCC(Nc5cccc(N6CCC(n7cc(-c8cnc9ccccc9n8)cn7)CC6)c5)CC4)cccc3C2=O)C(=O)N1 (stereo not drawn) [GS-378, 3-(1-Oxo-4-((4-((3-(4-(4-(quinoxalin-2-yl)-1H-pyrazol-1-yl)piperidin-1-yl)phenyl)amino)cyclohexyl)amino)isoindolin-2-yl)piperidine-2,6-dione]	10 to 100	10 to 100	< 10	< 10	–
O=C1CCC(N2C(=O)c3ccc(NCCCCCCn4nc(C(F)(F)F)c(-c5cnc6ccccc6n5)c4C(F)(F)F)cc3C2=O)C(=O)N1 (stereo not drawn) [GS-554, 2-(2,6-Dioxopiperidin-3-yl)-5-((6-(4-(quinoxalin-2-yl)-3,5-bis(trifluoromethyl)-1H-pyrazol-1-yl)hexyl)amino)isoindoline-1,3-dione]	100 to 1000	> 1000	–	–	IC50 (MV4;11 cells; [2]): 10 to 100 nM; IC50 (MOLM-13 cells; [4]): 10 to 100 nM
O=C1CCC(N2C(=O)c3ccc(CNC(=O)C(F)(F)c4cccc(-n5cc(-c6cnc7ccccc7n6)cn5)c4)cc3C2=O)C(=O)N1 (stereo not drawn) [GS-340, N-((2-(2,6-Dioxopiperidin-3-yl)-1,3-dioxoisoindolin-5-yl)methyl)-2,2-difluoro-2-(3-(4-(quinoxalin-2-yl)-1H-pyrazol-1-yl)phenyl)acetamide]	100 to 1000	> 1000	> 1000	> 1000	–
CN1CCC(Nc2cccc(-c3cn([C@H]4C[C@H](CNc5ccc6c(c5)C(=O)N(C5CCC(=O)NC5=O)C6=O)C4)nc3C3CC3)n2)CC1 (stereo partly drawn) [GS-454, 5-(((trans-3-(3-cyclopropyl-4-(6-((1-methylpiperidin-4-yl)amino)pyridin-2-yl)-1H-pyrazol-1-yl)cyclobutyl)methyl)amino)-2-(2,6-dioxopiperidin-3-yl)isoindoline-1,3-dione]	–	–	–	–	IC50 (MV4;11 cells; [7]): > 1000 nM; IC50 (MV4;11 cells; 72 h, compound with gilteritinib 10 nM, 11 IC50 gilteritinib): 100 to 1000 nM; IC50 (MOLM-13 cells; [9]): > 1000 nM; IC50 (MOLM-13 cells; 72 h, compound with gilteritinib 20 nM, read-out: MOLM-13 IC50 gilteritinib): 100 to 1000 nM
CN(c1ccccc1)C1CCN(CC(=O)NCCNc2ccc3c(c2)C(=O)N(C2CCC(=O)NC2=O)C3=O)CC1 (stereo not drawn) [GS-320]	–	–	–	–	IC50 (MV4;11 cells; [7]): > 1000 nM; IC50 (MV4;11 cells; [8]): > 1000 nM; IC50 (MOLM-13 cells; [9]): > 1000 nM; IC50 (MOLM-13 cells; [10]): 100 to 1000 nM

More lines, main results first:

IC50 (MV4;11 cells; [1]) [nM]	IC50 (MOLM-13 cells; [3]) [nM]	IC50 (MV4;11 cells; [5]) [nM]	IC50 (MOLM-13 cells; [6]) [nM]	Structure (SMILES)	also measured
10 to 100	100 to 1000	< 10	10 to 100	COc1ccnc(-c2cnn([C@H]3C[C@H](CCCNc4ccc5c(c4)C(=O)N(C4CCC(=O)NC4=O)C5=O)C3)c2)c1 (stereo partly drawn) [GS-341, 2-(2,6-Dioxopiperidin-3-yl)-5-((3-(trans-3-(4-(4-methoxypyridin-2-yl)-1H-pyrazol-1-yl)cyclobutyl)propyl)amino)isoindoline-1,3-dione]	–
10 to 100	100 to 1000	10 to 100	10 to 100	N#Cc1cccc2ncc(-c3cnn([C@H]4C[C@H](CCCNc5ccc6c(c5)C(=O)N(C5CCC(=O)NC5=O)C6=O)C4)c3)nc12 (stereo partly drawn) [GS-197, 3-(1-(trans-3-(3-((2-(2,6-Dioxopiperidin-3-yl)-1,3-dioxoisoindolin-5-yl)amino)propyl)cyclobutyl)-1H-pyrazol-4-yl)quinoxaline-5-carbonitrile]	–
10 to 100	10 to 100	–	–	O=C1CCC(N2C(=O)c3ccc(NCCCCCCn4cc(-c5cnc6ccc(C(F)(F)F)cc6n5)cn4)cc3C2=O)C(=O)N1 (stereo not drawn) [GS-559]	IC50 (MV4;11 cells; [2]): 10 to 100 nM; IC50 (MOLM-13 cells; [4]): < 10 nM
10 to 100	10 to 100	–	–	O=C1CCC(N2C(=O)c3ccc(NCCCCCCn4ncc(-c5cnc6ccccc6n5)c4C(F)F)cc3C2=O)C(=O)N1 (stereo not drawn) [GS-557, 5-((6-(5-(Difluoromethyl)-4-(quinoxalin-2-yl)-1H-pyrazol-1-yl)hexyl)amino)-2-(2,6-dioxopiperidin-3-yl)isoindoline-1,3-dione]	IC50 (MV4;11 cells; [2]): < 10 nM; IC50 (MOLM-13 cells; [4]): < 10 nM
> 1000	> 1000	–	–	O=C1CCC(N2C(=O)c3ccc(NCCC[C@H]4C[C@H](n5cc(-c6nccc7cnccc67)c(C6CC6)n5)C4)cc3C2=O)C(=O)N1 (stereo partly drawn) [GS-628, 5-((3-(trans-3-(3-Cyclopropyl-4-(2,6-naphthyridin-1-yl)-1H-pyrazol-1-yl)cyclobutyl)propyl)amino)-2-(2,6-dioxopiperidin-3-yl)isoindoline-1,3-dione]	IC50 (MV4;11 cells; [2]): 10 to 100 nM; IC50 (MOLM-13 cells; [4]): 10 to 100 nM
> 1000	> 1000	> 1000	100 to 1000	O=C1CCC(N2C(=O)c3ccc(NCCC4CCC(n5cc(-c6cnc7ccccc7n6)cn5)CC4)cc3C2=O)C(=O)N1 (stereo not drawn) [GS-100, 2-(2,6-Dioxopiperidin-3-yl)-5-((2-(4-(4-(quinoxalin-2-yl)-1H-pyrazol-1-yl)cyclohexyl)ethyl)amino)isoindoline-1,3-dione]	–
100 to 1000	> 1000	10 to 100	100 to 1000	Nc1cccc(-c2cn([C@H]3C[C@H](CNc4ccc5c(c4)C(=O)N(C4CCC(=O)NC4=O)C5=O)C3)nc2C2CC2)n1 (stereo partly drawn) [GS-273, 5-(((trans-3-(4-(6-aminopyridin-2-yl)-3-cyclopropyl-1H-pyrazol-1-yl)cyclobutyl)methyl)amino)-2-(2,6-dioxopiperidin-3-yl)isoindoline-1,3-dione]	–
> 1000	> 1000	100 to 1000	10 to 100	Cc1nn([C@H]2C[C@H](CCCNc3ccc4c(c3)C(=O)N(C3CCC(=O)NC3=O)C4=O)C2)cc1-c1cnc2ccc(N3C[C@H]4C[C@@H]3CN4C)cc2n1 (stereo partly drawn) [GS-407, 2-(2,6-dioxopiperidin-3-yl)-5-((3-(trans-3-(3-methyl-4-(7-((1R,4R)-5-methyl-2,5-diazabicyclo[2.2.1]heptan-2-yl)quinoxalin-2-yl)-1H-pyrazol-1-yl)cyclobutyl)propyl)amino)isoindoline-1,3-dione]	–
> 1000	100 to 1000	100 to 1000	100 to 1000	O=C1CCC(N2C(=O)c3ccc(NC[C@H]4C[C@@H](n5cc(-c6cnc7ccc(C8CCOCC8)cc7n6)cn5)C4)cc3C2=O)C(=O)N1 (stereo partly drawn) [GS-193, 2-(2,6-Dioxopiperidin-3-yl)-5-(((cis-3-(4-(7-(tetrahydro-2H-pyran-4-yl)quinoxalin-2-yl)-1H-pyrazol-1-yl)cyclobutyl)methyl)amino)isoindoline-1,3-dione]	–
> 1000	> 1000	> 1000	> 1000	O=C1CCC(N2C(=O)c3ccc(C#CCCCCn4cc(-c5cnc6ccccc6n5)cn4)cc3C2=O)C(=O)N1 (stereo not drawn) [GS-369, 2-(2,6-Dioxopiperidin-3-yl)-5-(6-(4-(quinoxalin-2-yl)-1H-pyrazol-1-yl)hex-1-yn-1-yl)isoindoline-1,3-dione]	–
